How the values were obtained:
Assay in all cases: cells
[1] = system: NCI-H2126; type: functional, cell-based, Homo sapiens;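 further: growth inhibition of the cancer cell line, determined with a cell viability readout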
Description: SANGER: Inhibition of human NCI-H2126 cell growth in a cell viability assay.

[2] = system: SK-LMS-1; type: functional, cell-based, Homo sapiens;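 further: growth inhibition of human SK-LMS-1 cells, read out with a cell viability assay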
Description: SANGER: Inhibition of human SK-LMS-1 cell growth in a cell viability assay.

[3] = system: NB13; type: functional, cell-based, Homo sapiens;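 further: cell viability readout measuring growth inhibition of human NB13 cells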
Description: SANGER: Inhibition of human NB13 cell growth in a cell viability assay.

[4] = system: GOTO; type: functional, cell-based, Homo sapiens;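 further: growth inhibition of GOTO cells, read out by a cell viability assay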
Description: SANGER: Inhibition of human GOTO cell growth in a cell viability assay.

[5] = system: L-428; type: functional, cell-based, Homo sapiens
Description: SANGER: Inhibition of human L-428 cell growth in a cell viability assay.

[6] = system: D-502MG; type: functional, cell-based, Homo sapiens
Description: SANGER: Inhibition of human D-502MG cell growth in a cell viability assay.

[7] = system: TE-12; type: functional, cell-based, Homo sapiens;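 further: growth inhibition of TE-12 cells, read out by a cell viability assay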
Description: SANGER: Inhibition of human TE-12 cell growth in a cell viability assay.

[8] = system: Lu-65; type: functional, cell-based, Homo sapiens;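 further: growth inhibition of Lu-65 cancer cells, read out by a cell viability assay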
Description: SANGER: Inhibition of human LU-65 cell growth in a cell viability assay.

[9] = system: SK-MEL-1; type: functional, cell-based, Homo sapiens;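 further: growth inhibition of human SK-MEL-1 cells, read out by a cell viability assay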
Description: SANGER: Inhibition of human SK-MEL-1 cell growth in a cell viability assay.

[10] = system: NCI-H226; type: functional, cell-based, Homo sapiens;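 further: cell viability read-out used to gauge growth inhibition of the cells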
Description: SANGER: Inhibition of human NCI-H226 cell growth in a cell viability assay.

[11] = system: ML-2; type: functional, cell-based, Homo sapiens;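 further: growth inhibition of ML-2 cells, measured with a cell viability readout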
Description: SANGER: Inhibition of human ML-2 cell growth in a cell viability assay.

[12] = system: HCE-T; type: functional, cell-based, Homo sapiens;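 further: cell viability assay read-out, reporting inhibition of HCE-T cell growth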
Description: SANGER: Inhibition of human HCE-T cell growth in a cell viability assay.

[13] = system: MZ1-PC; type: functional, cell-based, Homo sapiens;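 further: cell viability assay measuring growth inhibition of human MZ1-PC cells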
Description: SANGER: Inhibition of human MZ1-PC cell growth in a cell viability assay.

[14] = system: SF-126; type: functional, cell-based, Homo sapiens;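 further: growth inhibition of human SF126 cells, read out with a cell viability assay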
Description: SANGER: Inhibition of human SF126 cell growth in a cell viability assay.

[15] = system: CTV-1; type: functional, cell-based, Homo sapiens;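 further: growth inhibition of the cell line, read out with a cell viability assay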
Description: SANGER: Inhibition of human CTV-1 cell growth in a cell viability assay.

[16] = system: SCH; type: functional, cell-based, Homo sapiens;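 further: growth inhibition of human SCH cells, read out in a cell viability assay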
Description: SANGER: Inhibition of human SCH cell growth in a cell viability assay.

[17] = system: GCIY; type: functional, cell-based, Homo sapiens;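 further: growth inhibition of the human GCIY cell line, read out by a cell viability assay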
Description: SANGER: Inhibition of human GCIY cell growth in a cell viability assay.

[18] = system: NCI-H446; type: functional, cell-based, Homo sapiens;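 further: growth inhibition of NCI-H446 cells determined by a cell viability assay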
Description: SANGER: Inhibition of human NCI-H446 cell growth in a cell viability assay.

[19] = system: ES8; type: functional, cell-based, Homo sapiens;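 further: growth inhibition of human ES8 cells, read out with a cell viability assay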
Description: SANGER: Inhibition of human ES8 cell growth in a cell viability assay.

[20] = system: GT3TKB; type: functional, cell-based, Homo sapiens;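 further: growth inhibition of the cell line, read out with a cell viability assay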
Description: SANGER: Inhibition of human GT3TKB cell growth in a cell viability assay.

[21] = system: BV-173; type: functional, cell-based, Homo sapiens
Description: SANGER: Inhibition of human BV-173 cell growth in a cell viability assay.

[22] = system: RCC10RGB; type: functional, cell-based, Homo sapiens;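 further: growth inhibition of human RCC10RGB cells, read out by a cell viability assay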
Description: SANGER: Inhibition of human RCC10RGB cell growth in a cell viability assay.

[23] = system: NCI-H1770; type: functional, cell-based, Homo sapiens;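 further: growth inhibition of NCI-H1770 cells determined with a viability readout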
Description: SANGER: Inhibition of human NCI-H1770 cell growth in a cell viability assay.

[24] = system: EW-3; type: functional, cell-based, Homo sapiens;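 further: cell viability assay read-out, IC50 reflects inhibition of growth of the EW-3 cells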
Description: SANGER: Inhibition of human EW-3 cell growth in a cell viability assay.

[25] = system: KLE; type: functional, cell-based, Homo sapiens;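 further: growth inhibition of human KLE cells, read out with a cell viability assay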
Description: SANGER: Inhibition of human KLE cell growth in a cell viability assay.

[26] = system: NB69; type: functional, cell-based, Homo sapiens;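 further: growth inhibition of NB69 cells, determined by a cell viability assay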
Description: SANGER: Inhibition of human NB69 cell growth in a cell viability assay.

[27] = system: NCI-H1299; type: functional, cell-based, Homo sapiens;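 further: growth inhibition of human NCI-H1299 cells, read out by a cell viability assay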
Description: SANGER: Inhibition of human NCI-H1299 cell growth in a cell viability assay.

[28] = system: NEC8; type: functional, cell-based, Homo sapiens;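 further: growth inhibition of human NEC8 cells, read out by a cell viability assay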
Description: SANGER: Inhibition of human NEC8 cell growth in a cell viability assay.

[29] = system: Calu-6; type: functional, cell-based, Homo sapiens;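 further: growth of human Calu-6 cells, read out by a cell viability assay, IC50 marking inhibition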
Description: SANGER: Inhibition of human Calu-6 cell growth in a cell viability assay.

[30] = system: HEL; type: functional, cell-based, Homo sapiens;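 further: growth inhibition of HEL cells, read out with a cell viability assay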
Description: SANGER: Inhibition of human HEL cell growth in a cell viability assay.

[31] = system: COLO-800; type: functional, cell-based, Homo sapiens;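 further: growth inhibition of COLO-800 cells, read out with a cell viability assay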
Description: SANGER: Inhibition of human COLO-800 cell growth in a cell viability assay.

[32] = system: ETK-1; type: functional, cell-based, Homo sapiens;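 further: growth inhibition of human ETK-1 cells, read out with a cell viability assay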
Description: SANGER: Inhibition of human ETK-1 cell growth in a cell viability assay.

[33] = system: A4-Fuk; type: functional, cell-based, Homo sapiens;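 further: growth inhibition of A4-Fuk cells, read out by a cell viability assay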
Description: SANGER: Inhibition of human A4-Fuk cell growth in a cell viability assay.

[34] = system: NCI-H1650; type: functional, cell-based, Homo sapiens;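 further: growth inhibition of human NCI-H1650 cells measured by a cell viability assay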
Description: SANGER: Inhibition of human NCI-H1650 cell growth in a cell viability assay.

[35] = system: BE-13; type: functional, cell-based, Homo sapiens;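 further: growth inhibition of human BE-13 cells, measured with a cell viability assay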
Description: SANGER: Inhibition of human BE-13 cell growth in a cell viability assay.

[36] = system: KP-N-YS; type: functional, cell-based, Homo sapiens;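 further: cell viability assay measuring inhibition of cell line growth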
Description: SANGER: Inhibition of human KP-N-YS cell growth in a cell viability assay.

[37] = system: NCI-N87; type: functional, cell-based, Homo sapiens;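 further: growth inhibition of human NCI-N87 cells, read out with a cell viability assay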
Description: SANGER: Inhibition of human NCI-N87 cell growth in a cell viability assay.

[38] = system: HCE-4; type: functional, cell-based, Homo sapiens;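 further: cell viability assay measuring inhibition of growth in the human HCE-4 cell line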
Description: SANGER: Inhibition of human HCE-4 cell growth in a cell viability assay.

[39] = system: NCI-H209; type: functional, cell-based, Homo sapiens;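 further: growth inhibition of human NCI-H209 cells, measured by a cell viability assay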
Description: SANGER: Inhibition of human NCI-H209 cell growth in a cell viability assay.

[40] = system: ATN-1; type: functional, cell-based, Homo sapiens;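 further: growth inhibition of human ATN-1 cells, read out with a cell viability assay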
Description: SANGER: Inhibition of human ATN-1 cell growth in a cell viability assay.

[41] = system: LB1047-RCC; type: functional, cell-based, Homo sapiens;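 further: inhibition of cell growth, determined with a cell viability assay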
Description: SANGER: Inhibition of human LB1047-RCC cell growth in a cell viability assay.

[42] = system: EW-1; type: functional, cell-based, Homo sapiens;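 further: growth inhibition of the human EW-1 cell line, read out by a cell viability assay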
Description: SANGER: Inhibition of human EW-1 cell growth in a cell viability assay.

[43] = system: AM-38; type: functional, cell-based, Homo sapiens;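 further: growth inhibition of AM-38 cells of human origin, read out by a cell viability assay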
Description: SANGER: Inhibition of human AM-38 cell growth in a cell viability assay.

[44] = system: Becker; type: functional, cell-based, Homo sapiens;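 further: growth inhibition of Becker cells, read out with a cell viability assay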
Description: SANGER: Inhibition of human Becker cell growth in a cell viability assay.

[45] = system: NB10; type: functional, cell-based, Homo sapiens;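 further: growth inhibition of NB10 cells, read out by a cell viability assay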
Description: SANGER: Inhibition of human NB10 cell growth in a cell viability assay.

[46] = system: LU-139; type: functional, cell-based, Homo sapiens
Description: SANGER: Inhibition of human LU-139 cell growth in a cell viability assay.

[47] = system: ES6; type: functional, cell-based, Homo sapiens;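 further: growth inhibition of human ES6 cells, read out with a cell viability assay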
Description: SANGER: Inhibition of human ES6 cell growth in a cell viability assay.

[48] = system: GI-1; type: functional, cell-based, Homo sapiens;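 further: growth inhibition of human GI-1 cells, measured with a cell viability readout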
Description: SANGER: Inhibition of human GI-1 cell growth in a cell viability assay.

[49] = system: SHP77; type: functional, cell-based, Homo sapiens, SHP-77;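 further: growth inhibition of human SHP-77 cells measured by a cell viability assay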
Description: SANGER: Inhibition of human SHP-77 cell growth in a cell viability assay.

For CISPLATIN, the IC50 ([1]; nci-h2126) was 221 µM, the IC50 ([2]; sk-lms-1) was 814 µM and the IC50 ([3]; nb13) was 40.1 µM. It also gave an IC50 ([4]; goto) of 3.09 µM, an IC50 ([5]; l-428) of 18.9 µM and an IC50 ([6]; d-502mg) of 33.1 µM. It also gave an IC50 ([7]; te-12) of 42.6 µM, an IC50 ([8]; lu-65) of 559 µM and an IC50 ([9]; sk-mel-1) of 14.7 µM. For the same compound, the IC50 ([10]; nci-h226) was 41.5 µM, the IC50 ([11]; ml-2) was 163 µM and the IC50 ([12]; hce-t) was 7.9 µM. It also gave an IC50 ([13]; mz1-pc) of 29.9 µM, an IC50 ([14]; sf-126) of 12.1 µM and an IC50 ([15]; ctv-1) of 34 µM. The IC50 ([16]; sch) was 13.2 µM, the IC50 ([17]; gciy) was 18.5 µM and the IC50 ([18]; nci-h446) was 37.4 µM. For the same compound, the IC50 ([19]; es8) was 3.43 µM, the IC50 ([20]; gt3tkb) was 3.92 µM and the IC50 ([21]; bv-173) was 42.1 µM. It also gave an IC50 ([22]; rcc10rgb) of 917 µM, an IC50 ([23]; nci-h1770) of 417 µM and an IC50 ([24]; ew-3) of 1.6 µM. It also gave an IC50 ([25]; kle) of 137 µM, an IC50 ([26]; nb69) of 52.1 µM and an IC50 ([27]; nci-h1299) of 26.8 µM. It also gave an IC50 ([28]; nec8) of 2.52 µM, an IC50 ([29]; calu-6) of 75.8 µM and an IC50 ([30]; hel) of 1.39 µM. It also gave an IC50 ([31]; colo-800) of 20.1 µM, an IC50 ([32]; etk-1) of 49.8 µM and an IC50 ([33]; a4-fuk) of 47.5 µM. It also gave an IC50 ([34]; nci-h1650) of 19 µM, an IC50 ([35]; be-13) of 51.1 µM and an IC50 ([36]; kp-n-ys) of 811 µM. For the same compound, the IC50 ([37]; nci-n87) was 33 µM, the IC50 ([38]; hce-4) was 9.36 µM and the IC50 ([39]; nci-h209) was 0.537 µM. It also gave an IC50 ([40]; atn-1) of 18.6 µM, an IC50 ([41]; lb1047-rcc) of 5.89 µM and an IC50 ([42]; ew-1) of 8.48 µM. For the same compound, the IC50 ([43]; am-38) was 225 µM, the IC50 ([44]; becker) was 17.8 µM and the IC50 ([45]; nb10) was 11.5 µM. It also gave an IC50 ([46]; lu-139) of 95.6 µM, an IC50 ([47]; es6) of 21.3 µM and an IC50 ([48]; gi-1) of 2.06 µM. For the same compound, the IC50 ([49]; shp-77) was 602 µM.
With `Cc1cn(-c2cc(NC(=O)c3ccc(C)c(Nc4nccc(-c5cccnc5)n4)c3)cc(C(F)(F)F)c2)cn1` [NILOTINIB] the IC50 ([1]; Homo sapiens, NCI-H2126) was > 2 µM, the IC50 ([2]; Homo sapiens, SK-LMS-1) was > 2 µM and the IC50 ([3]; Homo sapiens, NB13) was > 2 µM. The IC50 ([4]; Homo sapiens, GOTO) was > 2 µM, the IC50 ([5]; Homo sapiens, L-428) was > 2 µM and the IC50 ([6]; Homo sapiens, D-502MG) was > 2 µM. The IC50 ([7]; Homo sapiens, TE-12) was > 2 µM, the IC50 ([8]; Homo sapiens, Lu-65) was > 2 µM and the IC50 ([9]; Homo sapiens, SK-MEL-1) was > 2 µM. The IC50 ([10]; Homo sapiens, NCI-H226) was > 2 µM, the IC50 ([11]; Homo sapiens, ML-2) was > 2 µM and the IC50 ([12]; Homo sapiens, HCE-T) was > 2 µM. The IC50 ([13]; Homo sapiens, MZ1-PC) was > 2 µM, the IC50 ([14]; Homo sapiens, SF-126) was > 2 µM and the IC50 ([15]; Homo sapiens, CTV-1) was > 2 µM. The IC50 ([16]; Homo sapiens, SCH) was > 2 µM, the IC50 ([17]; Homo sapiens, GCIY) was > 2 µM and the IC50 ([18]; Homo sapiens, NCI-H446) was > 2 µM. For the same compound, the IC50 ([19]; Homo sapiens, ES8) was > 2 µM, the IC50 ([20]; Homo sapiens, GT3TKB) was > 2 µM and the IC50 ([21]; Homo sapiens, BV-173) was 0.0109 µM. For the same compound, the IC50 ([22]; Homo sapiens, RCC10RGB) was > 2 µM, the IC50 ([23]; Homo sapiens, NCI-H1770) was > 2 µM and the IC50 ([24]; Homo sapiens, EW-3) was > 2 µM. The IC50 ([25]; Homo sapiens, KLE) was > 2 µM, the IC50 ([26]; Homo sapiens, NB69) was > 2 µM and the IC50 ([27]; Homo sapiens, NCI-H1299) was > 2 µM. For the same compound, the IC50 ([28]; Homo sapiens, NEC8) was > 2 µM, the IC50 ([29]; Homo sapiens, Calu-6) was > 2 µM and the IC50 ([30]; Homo sapiens, HEL) was > 2 µM. The IC50 ([31]; Homo sapiens, COLO-800) was > 2 µM, the IC50 ([32]; Homo sapiens, ETK-1) was > 2 µM and the IC50 ([33]; Homo sapiens, A4-Fuk) was > 2 µM. For the same compound, the IC50 ([34]; Homo sapiens, NCI-H1650) was > 2 µM, the IC50 ([35]; Homo sapiens, BE-13) was 1.27 µM and the IC50 ([36]; Homo sapiens, KP-N-YS) was > 2 µM. The IC50 ([37]; Homo sapiens, NCI-N87) was > 2 µM, the IC50 ([38]; Homo sapiens, HCE-4) was > 2 µM and the IC50 ([39]; Homo sapiens, NCI-H209) was > 2 µM. For the same compound, the IC50 ([40]; Homo sapiens, ATN-1) was > 2 µM, the IC50 ([41]; Homo sapiens, LB1047-RCC) was > 2 µM and the IC50 ([42]; Homo sapiens, EW-1) was > 2 µM. For the same compound, the IC50 ([43]; Homo sapiens, AM-38) was > 2 µM, the IC50 ([44]; Homo sapiens, Becker) was > 2 µM and the IC50 ([45]; Homo sapiens, NB10) was > 2 µM. For the same compound, the IC50 ([46]; Homo sapiens, LU-139) was > 2 µM, the IC50 ([47]; Homo sapiens, ES6) was > 2 µM and the IC50 ([48]; Homo sapiens, GI-1) was > 2 µM. The IC50 ([49]; Homo sapiens, SHP77) was > 2 µM.
